These results are taken from paper PMC2192356 (The Journal of Experimental Medicine, 1996).

Where a SMILES comes first, the peptide text is derived from it. Where no end group is shown, it is not given here. The star is where a group is joined. Biotin = O=C1N[C@H]2[C@H](CS[C@H]2CCCCC(=O)*)N1

Series [1] addresses T1, IAk (Mus musculus, UniProt P01910+P06343). The class given is binding, murine. The settings on record: pH 5.
For series [2], the target named is T1, IAk. The class given is binding, murine. Conditions: pH 5. This is another data set of the same source.
For series [3], the system named is IEk. The class given is binding, murine. Conditions: pH 5.
Series [4] deals with IAd. The class given is binding, murine. Conditions: pH 5.
Series [5] deals with T1, IAk. The class given is binding, murine. Conditions: pH 7.
Series [6] deals with T1, IAk. It is filed as binding, murine. Conditions: pH 5. This is another data set of the same source.
Series [7] relates to IAd. The class given is binding, murine. Conditions: pH 5. This is another data set of the same source.
Series [8] has as its system IAb. It is filed as binding, murine.
Series [9] relates to 3DO-54.8 T cells.
Series [10] deals with class II proteins. It is filed as binding.
The subject of series [11] is IEd. It is filed as binding, murine. The settings on record: pH 5.
The target of series [12] is T2, DR1 (Homo sapiens, UniProt P01903+P01911, A100R/D57E/F55L/F60I/F76Y/I96L/L162R/M171V/P40L/Q125E/R42F/V115G/Y59C). It is filed as binding. Conditions: pH 5.
In series [13] the test system is IEk. The class given is binding, murine. Conditions: pH 5. The source holds these as a separate data set.
Series [14] addresses T2, DR1. The class given is binding. Conditions: pH 7.
Series [15] relates to 3DO-54.8 T cells with CH27 APC. The class given is cell-based.
The subject of series [16] is IEk. The class given is binding, murine. Conditions: pH 5. The source holds these as a separate data set.
Series [17] concerns the target T2, DR1. The class given is binding. Conditions: pH 7. The source holds these as a separate data set.
Series [18] concerns the target IAk (mouse (endogenous in CH27 B lymphoma)). The series can be described thus: ELISA.
Series [19] deals with DR1 (human (endogenous in LG2)) (UniProt P01903). As to the kind of experiment: ELISA.

biotin-SEB, sequence (P01552 28-266): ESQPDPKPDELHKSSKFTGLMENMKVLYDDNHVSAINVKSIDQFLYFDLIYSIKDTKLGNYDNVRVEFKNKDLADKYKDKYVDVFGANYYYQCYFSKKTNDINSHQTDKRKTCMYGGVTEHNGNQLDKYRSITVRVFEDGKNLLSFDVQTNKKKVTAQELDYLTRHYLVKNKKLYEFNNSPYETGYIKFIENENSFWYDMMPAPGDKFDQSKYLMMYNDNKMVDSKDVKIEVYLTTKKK

`CC(C)C[C@H](NC(=O)[C@H](C)NC(=O)[C@H](CCC(=O)O)NC(=O)[C@@H](NC(=O)[C@H](CC(C)C)NC(=O)[C@H](Cc1c[nH]cn1)NC(=O)CCCC[C@@H]1SC[C@@H]2NC(=O)N[C@@H]21)C(C)C)C(=O)N[C@@H](Cc1ccc(O)cc1)C(=O)N[C@@H](CC(C)C)C(=O)N[C@H](C(=O)N[C@@H](CS)C(=O)NCC(=O)N[C@@H](CCC(=O)O)C(=O)N[C@@H](CCCNC(=N)N)C(=O)NCC(=O)N[C@@H](Cc1ccccc1)C(=O)N[C@@H](Cc1ccccc1)C(=O)N[C@@H](Cc1ccc(O)cc1)C(=O)N[C@H](C(=O)N1CCC[C@H]1C(=O)N[C@@H](CCCCNC(=O)CCCC[C@@H]1SC[C@@H]2NC(=O)N[C@@H]21)C(=O)N[C@@H](C)C(=O)O)[C@@H](C)O)C(C)C` [biotin-B(10-30)] (Biotin-HLVEALYLVCGERGFFYTPK(Biotin)A-OH; N-terminus and C-terminus assumed): in series [1], the “time to saturate the alternative binding site of IAk” value is reported as ≤ 1 h.
On to FVNQHLCGSHLVEALYLVCGER [B(1-22)], for which the “inhibition of the binding of biotin-B(10-30)” value in [2], in series [3] and in series [4] was “inhibits” in each case.
HLVEALYLVCGERGFFYTPKA [B(10-30)]: in series [5], the “inhibition of the binding of biotin-SEB to IAk” value is given as “inhibited”. For the same molecule, the “peptide concentration giving complete inhibition of SEB binding to IAk” value in series [5] is listed as 4. Further, the “inhibition of the binding of allele-specific antigenic peptides” value in series [6], in series [13] and in series [14] was “only weakly inhibited” in each case. For the same molecule, the “specific binding to class II protein” value in series [7], in series [8], in series [11], in series [12], in [1] and in series [16] was “binds” in each case. Further, the “inhibition of the binding of biotin-B(10-30)” value in series [2], in series [3] and in series [4] was “inhibit” in each case. Further, in series [9], the “effect on stimulation by anti-CD3 mAb (T cell toxicity)” value was “not altered”. Moreover, in series [10], the “dissociation rate from class II” value is given as “relatively rapid”. For the same molecule, the “pH dependence of binding to murine class II proteins” value in series [10] was “not enhanced”. Also, the “time to approach saturation / plateau of binding to class II” value in series [10] was in the range of 1 to 2 h. Also, the “affinity for the groove of IEk relative to pCc(91-104), logs lower” value in [13] is on record as “at least 3 logs”. In [14], the “affinity for DR1 relative to HA(306-318), logs lower” value was ~ 3 logs. Moreover, in [15], the “inhibition of the response of 3DO-54.8 to SEB (IL-2)” value is recorded as “inhibited”.
On to Intact insulin [reference compound], for which the “inhibition of the binding of biotin-B(10-30)” value in series [2], in series [3] and in [4] was “does not inhibit” throughout.
Consider “MAT(17-31): DR1-binding antigenic peptide defined by specific T cells (SGPLKAEIAQRLEDV)”, for which the “inhibition of the binding of biotin-B(10-30) to DR1” value in series [17] is reported as 25- 50%.
Turning to “Myo(106-118): IAd-binding peptide (FISEAIIHVLHSR) [reference compound]”, the “inhibition of biotin-B(10-30) binding to class II” value in [10] is recorded as “inhibits”.
Take “NTDGSTDYGILQINSR [HEL(46-61), reference compound]”: the “inhibition of the binding of biotin-SEB to IAk” value in [5] was “No inhibition”. In [13], the “affinity for the groove of IEk relative to pCc(91-104), logs lower” value is on record as “at least 3 logs”. Moreover, in series [15], the “inhibition of the response of 3DO-54.8 to SEB (IL-2)” value was “did not”.
As for “RADLIAYLKQATAK [pCc(91-104), reference compound]”, the “inhibition of the binding of allele-specific antigenic peptides” value in series [13] is “inhibit”.
“biotin-SEB (from UniProt P01552 28-266) (natural protein)”: the Kd in series [18] turned out to be 62 nM.
HLVEALYLVCGERGFFYTPKA (not fully specified (N-terminus); also: biotin (site not given here)) [biotin-B(10-30)]: the Kd in [19] came out at 620 nM.
